Experimental data taken from US11872226B2, “N-benzyl-2-phenoxybenzamide derivatives as prostaglandin E2 (PGE2) receptors modulators” (MEDIBIOFARMA, S.L., priority 2019, dated 2024).
pKi: −log10 of the molar value.

Experiments:
human EP4 receptor = target: T1, human EP4 receptor (Homo sapiens, UniProt P35408); assay: Competition binding in human EP4 receptor; settings: [3H]-Prostaglandin E2 competition, membranes from HEK-EP4 cell line
T1 construct: expressed in transfected cells; host or cells: HEK-EP4 cell line; membranes prepared in house
T1 sequence (P35408 whole entry): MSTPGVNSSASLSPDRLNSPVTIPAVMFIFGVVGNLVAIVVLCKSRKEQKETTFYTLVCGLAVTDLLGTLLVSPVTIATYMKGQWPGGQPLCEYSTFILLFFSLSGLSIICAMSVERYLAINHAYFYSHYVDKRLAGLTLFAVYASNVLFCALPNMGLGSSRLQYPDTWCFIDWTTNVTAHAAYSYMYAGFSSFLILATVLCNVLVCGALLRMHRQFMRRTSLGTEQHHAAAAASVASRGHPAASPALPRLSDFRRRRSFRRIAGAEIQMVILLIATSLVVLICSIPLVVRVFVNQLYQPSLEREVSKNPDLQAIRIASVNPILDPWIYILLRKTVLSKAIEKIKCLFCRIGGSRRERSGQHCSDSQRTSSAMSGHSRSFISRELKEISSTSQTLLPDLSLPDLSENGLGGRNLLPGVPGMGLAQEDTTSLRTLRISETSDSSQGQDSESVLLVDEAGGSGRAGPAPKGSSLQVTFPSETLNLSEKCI
Protocol: (§1) The compounds of the present invention were assayed for binding at human EP1, EP2, EP3 and EP4 receptors and were tested at several concentrations for IC50 determination.
Competition Binding in Human EP4 Receptor:
Prostaglandin EP4 receptor competition binding experiments were carried out in a multiscreen GF/B 96-well plate (Millipore, Madrid, Spain) pretreated with binding buffer (Mes 25 mM, EDTA 1 mM, MgCl2 10 mM, pH=6.0). In each well was incubated 35 μg of membranes from HEK-EP4 cell line and prepared in our laboratory (Lot: A003/27-04-2011, protein concentration=2803 μg/ml), 1 nM [3H]-Prostaglandin E2 (169.8 Ci/mmol, 0.1 mCi/ml, Perkin Elmer NET428250UC) and compounds studied and standard. Non-specific binding was determined in the presence of PGE2 10 μM (Cayman 14010). The reaction mixture (Vt: 250 μl/well) was incubated at 25° C. for 120 min, 200 μL was transferred to GF/B 96-well plate (Millipore, Madrid, Spain) after was filtered and washed six times with 250 μl wash buffer (Mes 25 mM, BSA 0.01%, pH=6.0), before measuring in a microplate beta scintillation counter (Microbeta Trilux, Perkin Elmer, Madrid, Spain). (Abramovitz et al., Biochim Biophys Acta 2000; 1483:285-293).
(§2) The inhibition constants (Ki) were calculated using the Cheng Prusoff equation
(§3) [formula] where L=concentration of radioligand in the assay, and KD=affinity of the radioligand for the receptor. A scatchard plot is used to determine the KD.

human EP2 receptor = target: T2, human EP2 receptor (Homo sapiens, UniProt P43116); assay: Competition binding in human EP2 receptor; settings: [3H]-Prostaglandin E2 competition, membranes from EP2 cell line
T2 construct: purchased Millipore HTS185M
T2 sequence (P43116 whole entry): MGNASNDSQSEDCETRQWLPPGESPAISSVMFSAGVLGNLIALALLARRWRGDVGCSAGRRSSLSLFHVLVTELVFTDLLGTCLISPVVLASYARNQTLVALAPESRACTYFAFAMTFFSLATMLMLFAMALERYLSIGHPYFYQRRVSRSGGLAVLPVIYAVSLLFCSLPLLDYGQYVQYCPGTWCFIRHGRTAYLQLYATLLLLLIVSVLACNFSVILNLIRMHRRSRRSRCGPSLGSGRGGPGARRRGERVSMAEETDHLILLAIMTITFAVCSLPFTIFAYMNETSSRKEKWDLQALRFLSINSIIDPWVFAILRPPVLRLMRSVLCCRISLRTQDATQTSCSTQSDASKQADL
Protocol: as §1
Competition Binding in Human EP2 Receptor:
Prostaglandin EP2 receptor competition binding experiments were carried out in a polypropylene 96-well microplate plate with binding buffer (Hepes 50 mM, CaCl2 1 mM, MgCl2 5 mM, pH=7.4). In each well was incubated 10 μg of membranes from EP2 cell line (Millipore HTS185M, protein concentration=2000 μg/ml), 7.5 nM [3H]-Prostaglandin E2 (169.8 Ci/mmol, 0.1 mCi/ml, Perkin Elmer NET428250UC) and compounds studied and standard. Non-specific binding was determined in the presence of PGE2 200 μM (Cayman 14010). The reaction mixture (Vt: 250 μl/well) was incubated at 25° C. for 90 min, 200 μL was transferred to GF/C 96-well plate (Millipore, Madrid, Spain) after was filtered and washed four times with 250 μl wash buffer (Hepes 50 mM, NaCl 500 mM, pH=7.4), before measuring in a microplate beta scintillation counter (Microbeta Trilux, Perkin Elmer, Madrid, Spain). (Wilson et al., Br J Pharmacol 2006; 148:326-339).
as §2, §3

With O=C(O)c1ccc(CNC(=O)c2cc(-c3cc(F)cc(F)c3)ccc2Oc2ccc(F)cc2)cc1 [Example 19, 4-((3′,5′-difluoro-4-(4-fluorophenoxy)-[1,1′-biphenyl]-3-carboxamido)methyl)benzoic acid] the pKi (human EP4 receptor) was > 7.00 and the pKi (human EP2 receptor) was > 7.00.

O=C(O)c1ccc(CNC(=O)c2cc(-c3cccs3)ccc2Oc2ccc(F)cc2)cc1 [Example 18, 4-((2-(4-fluorophenoxy)-5-(thiophen-2-yl)benzamido)methyl)benzoic acid] was tested, and the pKi (human EP4 receptor) was > 7.00 and the pKi (human EP2 receptor) was 5.00 to 6.00.

With O=C(O)c1ccc(CNC(=O)c2cc(-c3ccccc3)ccc2Oc2ccc(F)cc2)cc1 [Example 2, 4-((4-(4-fluorophenoxy)-[1,1′-biphenyl]-3-carboxamido)methyl)benzoic acid] the pKi (human EP4 receptor) was > 7.00 and the pKi (human EP2 receptor) was ≤ 5.00.

With O=C(O)c1ccc(CNC(=O)c2cc(-c3ccncc3F)ccc2Oc2ccc(F)cc2)cc1 [Example 9, 4-((2-(4-fluorophenoxy)-5-(3-fluoropyridin-4-yl)benzamido)methyl)benzoic acid] the pKi (human EP4 receptor) was > 7.00 and the pKi (human EP2 receptor) was 5.00 to 6.00.

For O=C(O)c1ccc(CNC(=O)c2cc(-c3ccccc3F)ccc2Oc2ccc(F)cc2)cc1 [Example 6, 4-((2′-fluoro-4-(4-fluorophenoxy)-[1,1′-biphenyl]-3-carboxamido)methyl) benzoic acid], the pKi (human EP4 receptor) was > 7.00 and the pKi (human EP2 receptor) was 5.00 to 6.00.

O=C(O)c1ccc(C2(NC(=O)c3cc(-c4cccc(C(F)(F)F)c4)ccc3Oc3ccc(F)cc3)CC2)cc1 [Example 30, 4-(1-(4-(4-fluorophenoxy)-3′-(trifluoromethyl)-[1,1′-biphenyl]-3-carboxamido)cyclopropyl)benzoic acid] was tested, and the pKi (human EP4 receptor) was > 7.00 and the pKi (human EP2 receptor) was 5.00 to 6.00.

N#Cc1ccc(-c2ccc(Oc3ccc(F)cc3)c(C(=O)NCc3ccc(C(=O)O)cc3)c2)cc1 [Example 7, 4-((4′-cyano-4-(4-fluorophenoxy)-[1,1′-biphenyl]-3-carboxamido)methyl) benzoic acid] was tested, and the pKi (human EP4 receptor) was > 7.00 and the pKi (human EP2 receptor) was 5.00 to 6.00.

N#Cc1cc(Cl)cc(-c2ccc(Oc3ccc(F)cc3)c(C(=O)NCc3ccc(C(=O)O)cc3)c2)c1 [Example 32, 4-((3′-chloro-5′-cyano-4-(4-fluorophenoxy)-[1,1′-biphenyl]-3-carboxamido)methyl)benzoic acid] was tested, and the pKi (human EP4 receptor) was > 7.00 and the pKi (human EP2 receptor) was 5.00 to 6.00.

With O=C(O)c1ccc(CNC(=O)c2cc(-c3ccc(F)cc3)ccc2Oc2ccc(F)cc2)cc1 [Example 4, 4-((4′-fluoro-4-(4-fluorophenoxy)-[1,1′-biphenyl]-3-carboxamido)methyl) benzoic acid] the pKi (human EP4 receptor) was > 7.00 and the pKi (human EP2 receptor) was > 7.00.

With O=C(O)c1ccc(CNC(=O)c2cc(-c3cccc(-c4ccncc4)c3)ccc2Oc2ccc(F)cc2)cc1 [Example 26, 4-((4-(4-fluorophenoxy)-3′-(pyridin-4-yl)-[1,1′-biphenyl]-3-ylcarboxamido)methyl)benzoic acid] the pKi (human EP4 receptor) was > 7.00 and the pKi (human EP2 receptor) was ≤ 5.00.

O=C(O)c1ccc(CNC(=O)c2cc(-c3ccc(F)c(F)c3)ccc2Oc2ccc(F)cc2)cc1 [Example 13, 4-((3′,4′-difluoro-4-(4-fluorophenoxy)-[1,1′-biphenyl]-3-carboxamido)methyl)benzoic acid] was tested, and the pKi (human EP4 receptor) was 6.00 to 7.00 and the pKi (human EP2 receptor) was > 7.00.

NC(=O)c1ccc(-c2ccc(Oc3ccc(F)cc3)c(C(=O)NCc3ccc(C(=O)O)cc3)c2)o1 [Example 27, 4-((5-(5-carbamoylfuran-2-yl)-2-(4-fluorophenoxy)benzamido)methyl) benzoic acid] showed a pKi (human EP4 receptor) of 5.00 to 6.00 and a pKi (human EP2 receptor) of 5.00 to 6.00.

In the case of O=C(O)c1ccc(CNC(=O)c2cc(-c3ccc(C(F)(F)F)cc3)ccc2Oc2ccc(F)cc2)cc1 [Example 14, 4-((4-(4-fluorophenoxy)-4′-(trifluoromethyl)-[1,1′-biphenyl]-3-carboxamido)methyl)benzoic acid], the pKi (human EP4 receptor) was 5.00 to 6.00 and the pKi (human EP2 receptor) was 6.00 to 7.00.

O=C(O)c1ccc(CNC(=O)c2cc(-c3cccnc3)ccc2Oc2ccc(F)cc2)cc1 [Example 10, 4-((2-(4-fluorophenoxy)-5-(pyridin-3-yl)benzamido)methyl)benzoic acid] was tested, and the pKi (human EP4 receptor) was > 7.00 and the pKi (human EP2 receptor) was 5.00 to 6.00.

In the case of N#Cc1cccc(-c2ccc(Oc3ccc(F)cc3)c(C(=O)NCc3ccc(C(=O)O)cc3)c2)c1 [Example 8, 4-((3′-cyano-4-(4-fluorophenoxy)-[1,1′-biphenyl]-3-carboxamido)methyl) benzoic acid], the pKi (human EP4 receptor) was > 7.00 and the pKi (human EP2 receptor) was > 7.00.

For O=C(O)c1ccc(CNC(=O)c2cc(-c3ccncc3)ccc2Oc2ccc(F)cc2)cc1 [Example 1, 4-((2-(4-fluorophenoxy)-5-(pyridin-4-yl)benzamido)methyl)benzoic acid], the pKi (human EP4 receptor) was > 7.00 and the pKi (human EP2 receptor) was ≤ 5.00.

In the case of O=C(O)c1ccc(CNC(=O)c2cc(-c3cc(F)cc(C(F)(F)F)c3)ccc2Oc2ccc(F)cc2)cc1 [Example 21, 4-((3′-fluoro-4-(4-fluorophenoxy)-5′-(trifluoromethyl)-[1,1′-biphenyl]-3-carboxamido)methyl)benzoic acid], the pKi (human EP4 receptor) was > 7.00 and the pKi (human EP2 receptor) was > 7.00.

In the case of O=C(O)c1ccc(CNC(=O)c2cc(-c3ccc(Cl)cc3)ccc2Oc2ccc(F)cc2)cc1 [Example 3, 4-((4′-chloro-4-(4-fluorophenoxy)-[1,1′-biphenyl]-3-carboxamido)methyl) benzoic acid], the pKi (human EP4 receptor) was > 7.00 and the pKi (human EP2 receptor) was ≤ 5.00.

In the case of O=C(O)c1ccc(CNC(=O)c2cc(-c3ccncc3Cl)ccc2Oc2ccc(F)cc2)cc1 [Example 11, 4-((2-(4-fluorophenoxy)-5-(3-chloropyridin-4-yl)benzamido)methyl)benzoic acid], the pKi (human EP4 receptor) was 6.00 to 7.00 and the pKi (human EP2 receptor) was ≤ 5.00.

C[C@@H](NC(=O)c1cc(-c2cccc(C(F)(F)F)c2)ccc1Oc1ccc(F)cc1)c1ccc(C(=O)O)cc1 [Example 29, (R)-4-(1-(4-(4-fluorophenoxy)-3′-(trifluoromethyl)-[1,1′-biphenyl]-3-carboxamido)ethyl)benzoic acid] was tested, and the pKi (human EP4 receptor) was > 7.00 and the pKi (human EP2 receptor) was 5.00 to 6.00.

With O=C(O)c1ccc(CNC(=O)c2cc(-c3cccc(Cl)c3)ccc2Oc2ccc(F)cc2)cc1 [Example 20, 4-((3′-chloro-4-(4-fluorophenoxy)-[1,1′-biphenyl]-3-carboxamido)methyl) benzoic acid] the pKi (human EP4 receptor) was > 7.00 and the pKi (human EP2 receptor) was 5.00 to 6.00.

O=C(O)c1ccc(CNC(=O)c2cc(-c3cccc(C(F)(F)F)c3)ccc2Oc2ccc(F)cc2)c(F)c1 [Example 28, 3-fluoro-4-((4-(4-fluorophenoxy)-3′-(trifluoromethyl)-[1,1′-biphenyl]-3-ylcarboxamido)methyl)benzoic acid] was tested, and the pKi (human EP4 receptor) was > 7.00 and the pKi (human EP2 receptor) was 5.00 to 6.00.

For N#Cc1cc(F)cc(-c2ccc(Oc3ccc(F)cc3)c(C(=O)NCc3ccc(C(=O)O)cc3)c2)c1 [Example 31, 4-((3′-fluoro-5′-cyano-4-(4-fluorophenoxy)-[1,1′-biphenyl]-3-carboxamido)methyl)benzoic acid], the pKi (human EP4 receptor) was > 7.00 and the pKi (human EP2 receptor) was 5.00 to 6.00.

In the case of O=C(O)c1ccc(CNC(=O)c2cc(-c3cccc(C(F)(F)F)c3)ccc2Oc2ccc(F)cc2)cc1 [Example 15, 4-((4-(4-fluorophenoxy)-3′-(trifluoromethyl)-[1,1′-biphenyl]-3-carboxamido)methyl)benzoic acid], the pKi (human EP4 receptor) was > 7.00 and the pKi (human EP2 receptor) was > 7.00.

O=C(O)c1ccc(CNC(=O)c2cc(-c3cncnc3)ccc2Oc2ccc(F)cc2)cc1 [Example 12, 4-((2-(4-fluorophenoxy)-5-(pyrimidin-5-yl)benzamido)methyl)benzoic acid] was tested, and the pKi (human EP4 receptor) was 6.00 to 7.00 and the pKi (human EP2 receptor) was ≤ 5.00.

For O=C(O)c1ccc(CNC(=O)c2cc(-c3cccc(F)c3)ccc2Oc2ccc(F)cc2)cc1 [Example 5, 4-((3′-fluoro-4-(4-fluorophenoxy)-[1,1′-biphenyl]-3-carboxamido)methyl) benzoic acid], the pKi (human EP4 receptor) was > 7.00 and the pKi (human EP2 receptor) was > 7.00.
